In ChEMBL document CHEMBL6103657, “Discovery of a Potent SARM1 Base-Exchange Inhibitor with In Vivo Efficacy” (J Med Chem, 2025):

How the values were obtained:
[1] = physchem; details: octanol/aqueous buffer, pH 7.4
[2] = physchem; details: buffer, pH 6.5

Compound	logD [1]	solubility [2] [µg/mL]
CC[C@@H](c1ccncc1)N(C)C(=O)N[C@@H]1COCC1(F)F	0.73	> 299
C[C@@H](c1ccncc1)N(C)/C(=N\C#N)NC1COCC1(F)F (stereo partly specified)	0.9	> 309
CN(Cc1ccncc1)C(=O)NC1COCC1(F)F (stereo unspecified)	0.3	> 271
